Measurements as given in the NIST ThermoML archive (doi:10.1016/j.jct.2015.11.020).
Values joined by “and” are separate entries in the source; they are usually repeats but may differ in a detail not shown here. Equal entries are not always repeated. Numbers after ± are expanded uncertainties.

Experiment: mn = molality of the nth substance listed, in mol/kg
Conditions: 100 kPa, Liquid; for speed of sound: Frequency=3 MHz, Sing-around technique in a fixed-path interferometer; for mass density: Vibrating tube method

N[C@@H](CO)C(=O)O [L-serine] + O
Conditions	mass density, 305.15 K [kg/m3]	mass density, 310.15 K [kg/m3]	mass density, 315.15 K [kg/m3]	speed of sound, 305.15 K [m/s]	speed of sound, 310.15 K [m/s]	speed of sound, 315.15 K [m/s]
m1 = 0.1012	999.763 ± 1	997.637 ± 1	995.748 ± 1	1519.7 ± 1.6	1529.4 ± 1.6	1537.7 ± 1.6
m1 = 0.1997	1003.99 ± 1	1001.83 ± 1	999.945 ± 1	1525.5 ± 1.6	1535.1 ± 1.6	1543.3 ± 1.6
m1 = 0.3	1008.2 ± 1.1	1006.11 ± 1.1	1004.22 ± 1.1	1531.1 ± 1.6	1540.5 ± 1.6	1548.4 ± 1.6
m1 = 0.3986	1012.53 ± 1.1	1010.31 ± 1.1	1008.42 ± 1.1	1536.8 ± 1.7	1546.1 ± 1.7	1554 ± 1.7
m1 = 0.4987	1016.75 ± 1.1	1014.57 ± 1.1	1012.68 ± 1.1	1542.2 ± 1.7	1551.4 ± 1.7	1559.2 ± 1.7
m1 = 0.6008	1021.43 ± 1.2	1018.92 ± 1.2	1017.03 ± 1.1	1548 ± 1.8	1556.9 ± 1.8	1564.5 ± 1.7
m1 = 0.6973	1025.53 ± 1.2	1023.03 ± 1.2	1021.14 ± 1.2	1553.3 ± 1.8	1562.2 ± 1.8	1569.6 ± 1.8
m1 = 0.8	1029.74 ± 1.2	1027.41 ± 1.2	1025.52 ± 1.2	1558.8 ± 1.8	1567.6 ± 1.8	1575 ± 1.8
m1 = 0.9003	1033.96 ± 1.3	1031.68 ± 1.3	1029.79 ± 1.3	1564 ± 1.9	1572.7 ± 1.9	1579.9 ± 1.9
m1 = 0.9963	1037.97 ± 1.3	1035.77 ± 1.4	1033.88 ± 1.3	1569.2 ± 1.9	1577.7 ± 1.9	1584.9 ± 1.9

C[C@@H](O)[C@H](N)C(=O)O [L-threonine] + O
Conditions	mass density, 305.15 K [kg/m3]	mass density, 310.15 K [kg/m3]	mass density, 315.15 K [kg/m3]	speed of sound, 305.15 K [m/s]	speed of sound, 310.15 K [m/s]	speed of sound, 315.15 K [m/s]
m1 = 0.09989	999.283 ± 1	997.513 ± 1	995.687 ± 1	1521 ± 1.5	1530.7 ± 1.5	1538.9 ± 1.5
m1 = 0.1997	1003.52 ± 1	1001.69 ± 1	999.928 ± 1	1528 ± 1.5	1537.5 ± 1.5	1545.4 ± 1.5
m1 = 0.2989	1007.74 ± 1	1005.85 ± 1	1004.15 ± 1	1535 ± 1.6	1544.6 ± 1.6	1552 ± 1.6
m1 = 0.3989	1011.99 ± 1.1	1010.04 ± 1.1	1008.4 ± 1.1	1542.2 ± 1.6	1551.1 ± 1.6	1559 ± 1.6
m1 = 0.5002	1016.3 ± 1.1	1014.29 ± 1.1	1012.7 ± 1.1	1549.1 ± 1.7	1558.1 ± 1.7	1566 ± 1.7
m1 = 0.5982	1020.46 ± 1.1	1018.39 ± 1.1	1016.87 ± 1.1	1555.7 ± 1.7	1564.8 ± 1.7	1573.1 ± 1.7
m1 = 0.6471	1022.54 ± 1.2	1020.44 ± 1.2	1018.94 ± 1.2	1559 ± 1.7	1567.9 ± 1.8	1576.5 ± 1.8
m1 = 0.7007	1024.82 ± 1.2	1022.69 ± 1.2	1021.22 ± 1.2	1562.4 ± 1.8	1571.7 ± 1.8	1580.1 ± 1.8
m1 = 0.7476	1026.81 ± 1.2	1024.65 ± 1.2	1023.22 ± 1.2	1565.7 ± 1.9	1575.1 ± 1.9	1583.3 ± 1.8
m1 = 0.7854	1028.42 ± 1.2	1026.23 ± 1.3	1024.82 ± 1.2	1568.4 ± 1.9	1577.8 ± 1.8	1585.9 ± 1.9

CN(C)C(=N)NC(=N)N.Cl [N,N-dimethylimidodicarbonimidic diamide hydrochloride] + O
Conditions	mass density, m1 = 0.03 [kg/m3]	mass density, m1 = 0.045 [kg/m3]	mass density, m1 = 0.06 [kg/m3]	mass density, m1 = 0.09 [kg/m3]	speed of sound, m1 = 0.03 [m/s]	speed of sound, m1 = 0.045 [m/s]	speed of sound, m1 = 0.06	speed of sound, m1 = 0.09 [m/s]
305.15 K	996.159 ± 1	996.716 ± 1	997.319 ± 1	998.393 ± 1	1516.5 ± 1.6	1518 ± 1.6	1519.3 ± 1.5 m/s and 1519.3 ± 1.6 m/s	1522 ± 1.6
310.15 K	994.44 ± 1	994.953 ± 1	995.586 ± 1	996.654 ± 1	1526.3 ± 1.6	1527.7 ± 1.6	1529 ± 1.6 m/s	1531.5 ± 1.6
315.15 K	992.549 ± 1	993.115 ± 1	993.681 ± 1	994.744 ± 1	1534.4 ± 1.6	1535.9 ± 1.6	1537.2 ± 1.6 m/s	1539.6 ± 1.6

O [water] + CN(C)C(=N)NC(=N)N.Cl
m2 = 0
Conditions	mass density [kg/m3]	speed of sound [m/s]
305.15 K	995.038 ± 1	1513.7 ± 1.6
310.15 K	993.328 ± 1	1523.6 ± 1.6
315.15 K	991.439 ± 1	1532.1 ± 1.6

O [water] + C[C@@H](O)[C@H](N)C(=O)O
m2 = 0
Conditions	mass density [kg/m3]	speed of sound [m/s]
305.15 K	995.038 ± 1	1513.7 ± 1.6
310.15 K	993.328 ± 1	1523.6 ± 1.6
315.15 K	991.439 ± 1	1532.1 ± 1.6

O [water] + N[C@@H](CO)C(=O)O
m2 = 0
Conditions	mass density [kg/m3]	speed of sound [m/s]
305.15 K	995.038 ± 1	1513.7 ± 1.6
310.15 K	993.328 ± 1	1523.6 ± 1.6
315.15 K	991.439 ± 1	1532.1 ± 1.6
